Reference: patent US7507727B2, “Substituted quinobenzoxazine analogs and methods of using thereof” (Cylene Pharmaceuticals, Inc., priority 2003, dated 2009)

The compounds below were run against c-Myc template DNA (c-myc quadruplex) (assay: Quadruplex binding / stop assay (Taq polymerase arrest, capillary electrophoresis)). Details: read-out: Stop Data c-Myc μM; concentration at which 50% of the DNA was arrested (arrested:full-length 1:1).
From the text: A high throughput polymerase arrest assay has been developed. The assay comprises contacting a template nucleic acid, often DNA, with a primer, which also is often DNA; contacting the primer/template complex with a compound described herein (also referred to as a “test compound”); contacting the primer/template complex with a polymerase; and separating reaction products. The assay often includes the step of denaturing the primer/template complex mixture and then renaturing the complex, which often is carried out before a test molecule is added to the system. Multiple assays often are carried out using varying concentrations of a test compound, such that an IC50 value can be obtained, for example. The reaction products often include extended primers of different lengths.
Thus, the reaction mixture often includes at least two reaction products when a test compound interacts with a quadruplex structure in the template, one having a completely extended primer and one having an incompletely extended primer, and these two reaction products are separated. The products may be separated using any convenient separation method, such as mass spectrometry and in one embodiment, capillary electrophoresis.
In an embodiment, a primer oligonucleotide covalently linked to a fluorescent label is contacted with template DNA. The resulting complex is contacted with a test molecule and then contacted with a polymerase capable of extending the primer. The reaction products then are separated and detected by capillary electrophoresis. A longer primer sequence was used for practicing this embodiment as compared to embodiments where the primer includes no covalently-linked fluorophore or where capillary electrophoresis is not utilized for separation. Deoxynucleotides are added at any stage of the assay before the separation, often when the primer is contacted with the template DNA. The template DNA/primer complex often is denatured (e.g., by increasing the temperature of the system) and then renatured (e.g., by cooling the system) before a test compound is added).
The mixture was denatured at 95° C. for 5 minutes and, after cooling down to room temperature, was incubated at 37° C. for 15 minutes.
After cooling down to room temperature, 1 mM KCl and the test compound (various concentrations) were added and the mixture incubated for 15 minutes at room temperature. The primer extension was performed by adding 10 mM KCl and Taq DNA Polymerase (2.5 U/reaction, Promega) and incubating at 70° C. for 30 minutes. The reaction was stopped by adding 1 μl of the reaction mixture to 10 μl Hi-Di Formamide mixed and 0.25 μl LIZ120 size standard. Hi-Di Formamide and LIZ120 size standard were purchased from Applied Biosystems.
The partially extended quadruplex arrest product was between 61 or 62 bases long and the full-length extended product was 99 bases long. The products were separated and analyzed using capillary electrophoresis. Capillary electrophoresis was performed using an ABI PRISM 3100-Avant Genetic Analyzer.
Stop Assays. […] A fluorescently labeled primer DNA is then annealed to the 3′ end of the template DNA. A DNA polymerase such as Taq polymerase is then introduced to synthesize a complementary strand of DNA by extending from the fluorescently labeled primer. When the progress of the Taq polymerase is unhindered, it synthesizes a full-length copy of the template.
These products are visualized by capillary electrophoresis.

IC50, 1.75 µM:
CN1CCCC1CCNC(=O)c1cn2c3c(c(Nc4ccccc4N4CCOCC4)c(F)cc3c1=O)Oc1cc3ccccc3cc1-2 (stereo not drawn) [compound 264]
CN1CCCC1CCNC(=O)c1cn2c3c(c(N4CCNC(c5cccnc5)C4)c(F)cc3c1=O)Oc1cc3ccccc3cc1-2 (stereo not drawn) [compound 265]
CN1CCCC1CCNC(=O)c1cn2c3c(c(NCCN4CCCC4)ccc3c1=O)Oc1cc3ccccc3cc1-2 (stereo not drawn) [compound 266]
O=C(NCCCN1CCOCC1)c1cn2c3c(c(NCCN4CCCC4)ccc3c1=O)Oc1cc3ccccc3cc1-2 [compound 267]
O=C(NCCN1CCOCC1)c1cn2c3c(c(NCCN4CCCC4)ccc3c1=O)Oc1cc3ccccc3cc1-2 [compound 268]
CN1CCCC1CCNc1ccc2c(=O)c(C(=O)NCCCN3CCOCC3)cn3c2c1Oc1cc2ccccc2cc1-3 (stereo not drawn) [compound 269]
CN1CCCC1CCNc1ccc2c(=O)c(C(=O)NC3CC(C)(C)NC(C)(C)C3)cn3c2c1Oc1cc2ccccc2cc1-3 (stereo not drawn) [compound 270]
CN1CCCC1CCNc1ccc2c(=O)c(C(=O)NCCN3CCOCC3)cn3c2c1Oc1cc2ccccc2cc1-3 (stereo not drawn) [compound 271]
O=C(NCCN1CCCC1)c1cn2c3c(c(NCCCN4CCOCC4)ccc3c1=O)Oc1cc3ccccc3cc1-2 [compound 272]
CN1CCCC1CCNC(=O)c1cn2c3c(c(NCCCN4CCOCC4)ccc3c1=O)Oc1cc3ccccc3cc1-2 (stereo not drawn) [compound 273]
CC1(C)CC(NC(=O)c2cn3c4c(c(N5CCC(NC(=O)OC(C)(C)C)C5)ccc4c2=O)Oc2cc4ccccc4cc2-3)CC(C)(C)N1 (stereo not drawn) [compound 274]
CN(C)CCCCNc1ccc2c(=O)c(C(=O)NCCC3CCCN3C)cn3c2c1Oc1cc2ccccc2cc1-3 (stereo not drawn) [compound 275]
CN(C)CCCCNc1ccc2c(=O)c(C(=O)NC3CC(C)(C)NC(C)(C)C3)cn3c2c1Oc1cc2ccccc2cc1-3 [compound 276]
CN(C)CCCCNC(=O)c1cn2c3c(c(NCCCCN(C)C)ccc3c1=O)Oc1cc3ccccc3cc1-2 [compound 277]
CN1CCN(CCCNc2ccc3c(=O)c(C(=O)NCCCN4CCOCC4)cn4c3c2Oc2cc3ccccc3cc2-4)CC1 [compound 278]
CN1CCN(CCCNc2ccc3c(=O)c(C(=O)NCCN4CCOCC4)cn4c3c2Oc2cc3ccccc3cc2-4)CC1 [compound 279]
NC1CCN(c2ccc3c(=O)c(C(=O)O)cn4c3c2Oc2cc3ccccc3cc2-4)C1 (stereo not drawn) [compound 280]
CN1CCCC1CCNC(=O)c1cn2c3c(c(N4CCC(N)CC4)c(F)cc3c1=O)Oc1cc3ccccc3cc1-2 (stereo not drawn) [compound 281]
NC1CCN(C(=O)c2cn3c4c(c(N5CC6CCCNC6C5)c(F)cc4c2=O)Oc2cc4ccccc4cc2-3)C1 (stereo not drawn) [compound 282]
CC(O)CNc1c(F)cc2c(=O)c(C(=O)NCCC3CCCN3C)cn3c2c1Oc1cc2ccccc2cc1-3 (stereo not drawn) [compound 283]
CN1CCCC1CCNC(=O)c1cn2c3c(c(NCCCCO)c(F)cc3c1=O)Oc1cc3ccccc3cc1-2 (stereo not drawn) [compound 284]
CC(CNc1c(F)cc2c(=O)c(C(=O)NCCC3CCCN3C)cn3c2c1Oc1cc2ccccc2cc1-3)c1ccccc1 (stereo not drawn) [compound 285]
COc1ccc(CCNc2c(F)cc3c(=O)c(C(=O)NCCC4CCCN4C)cn4c3c2Oc2cc3ccccc3cc2-4)cc1 (stereo not drawn) [compound 286]
CN1CCCC1CCNC(=O)c1cn2c3c(c(NCCc4c[nH]c5ccccc45)c(F)cc3c1=O)Oc1cc3ccccc3cc1-2 (stereo not drawn) [compound 287]
COc1ccc2c(CCNc3c(F)cc4c(=O)c(C(=O)NCCC5CCCN5C)cn5c4c3Oc3cc4ccccc4cc3-5)c[nH]c2c1 (stereo not drawn) [compound 288]
COc1cccc(CCNc2c(F)cc3c(=O)c(C(=O)NCCC4CCCN4C)cn4c3c2Oc2cc3ccccc3cc2-4)c1 (stereo not drawn) [compound 289]
COc1ccc2[nH]cc(CCNc3c(F)cc4c(=O)c(C(=O)NCCC5CCCN5C)cn5c4c3Oc3cc4ccccc4cc3-5)c2c1 (stereo not drawn) [compound 290]
